Columns and labels:
ragweed = experiment: Test E preemergence; type: in vivo, Ambrosia elatior; settings: scale 0 to 100
Description: (§1) Seeds of plant species selected from corn (Zea mays), soybean (Glycine max), lambsquarters (Chenopodium album), poinsettia, wild (wild poinsettia, Euphorbia heterophylla), pigweed, palmer (palmer pigweed, Amaranthus palmeri), waterhemp (common waterhemp, Amaranthus rudis), surinam grass (Brachiaria decumbens), crabgrass, large (large crabgrass, Digitaria sanguinalis), crabgrass, Brazilian (Brazilian crabgrass, Digitaria horizontalis), panicum, fall (fall panicum, Panicum dichotomiflorum), foxtail, giant (giant foxtail, Setaria faberii), foxtail, green (green foxtail, Setaria viridis), goosegrass (Eleusine indica), johnsongrass (Sorghum halepense), ragweed (common ragweed, Ambrosia elatior), barnyardgrass (Echinochloa crus-galli), sandbur (southern sandbur, Cenchrus echinatus), arrowleaf sida (Sida rhombifolia), ryegrass, Italian (Italian ryegrass, Lolium multiflorum), dayflower, VA (Virginia dayflower, Commelina virginica), field bindweed (Convolvulus arvensis), cocklebur (common cocklebur, Xanthium strumarium), morningglory (Ipomoea coccinea), nightshade (eastern black nightshade, Solanum ptycanthum), kochia (Kochia scoparia), nutsedge, yellow (yellow nutsedge, Cyperus esculentus), smartweed (ladysthumb smartweed, Polygonum persicaria), velvetleaf (Abutilon theophrasti), horseweed (Conyza canadensis), and beggarticks (hairy beggarticks, Bidens pilosa), were planted into a silt loam soil and treated preemergence with test chemicals formulated in a non-phytotoxic solvent mixture which included a surfactant.
(§2) At the same time, plants from these crop and weed species and also waterhemp_RES1, (ALS & Triazine resistant common waterhemp, Amaranthus rudis), and waterhemp_RES2, (ALS & HPPD resistant common waterhemp, Amaranthus rudis) were planted in pots containing Sunshine Redi-Earth® planting medium comprising spaghnum peat moss, vermiculite, starter nutrients and dolomitic limestone were treated with postemergence applications of test chemicals formulated in the same manner. Plants ranged in height from 2 to 18 cm for postemergence treatments (1- to 4-leaf stage). Treated plants and controls were maintained in a greenhouse for 14 to 21 d, after which time all species were compared to controls and visually evaluated. Plant response ratings, summarized in Table E, are based on a scale of 0 to 100 where 0 is no effect and 100 is complete control. A dash (-) response means no test result.

pigweed, palmer [1] = experiment: Test E preemergence; type: in vivo, Amaranthus palmeri; settings: scale 0 to 100
Description: as §1, §2

kochia [2] = experiment: Test E postemergence; type: in vivo, Kochia scoparia; settings: scale 0 to 100
Description: as §1, §2

soybean = experiment: Test E postemergence; type: in vivo, Glycine max; settings: scale 0 to 100
Description: as §1, §2

panicum, fall = experiment: Test E postemergence; type: in vivo, Panicum dichotomiflorum; settings: scale 0 to 100
Description: as §1, §2

pigweed, palmer [3] = experiment: Test E postemergence; type: in vivo, Amaranthus palmeri; settings: scale 0 to 100
Description: as §1, §2

dayflower, VA = experiment: Test E postemergence; type: in vivo, Commelina virginica; settings: scale 0 to 100
Description: as §1, §2

waterhemp [4] = experiment: Test E preemergence; type: in vivo, Amaranthus rudis; settings: scale 0 to 100
Description: as §1, §2

crabgrass, Brazilian = experiment: Test E postemergence; type: in vivo, Digitaria horizontalis; settings: Brazil, scale 0 to 100
Description: as §1, §2

kochia [5] = experiment: Test E preemergence; type: in vivo, Kochia scoparia; settings: scale 0 to 100
Description: as §1, §2

field bindweed = experiment: Test E preemergence; type: in vivo, Convolvulus arvensis; settings: scale 0 to 100
Description: as §1, §2

arrowleaf sida [6] = experiment: Test E postemergence; type: in vivo, Sida rhombifolia; settings: scale 0 to 100
Description: as §1, §2

sandbur = experiment: Test E postemergence; type: in vivo, Cenchrus echinatus; settings: scale 0 to 100
Description: as §1, §2

beggarticks = experiment: Test E postemergence; type: in vivo, Bidens pilosa; settings: scale 0 to 100
Description: as §1, §2

corn = experiment: Test E preemergence; type: in vivo, Zea mays; settings: scale 0 to 100
Description: as §1, §2

[7] = tested on: waterhemp_RES1 (ALS & Triazine resistant common waterhemp); experiment: Test E postemergence; type: in vivo, Amaranthus rudis; settings: scale 0 to 100
Description: as §1, §2

waterhemp [8] = experiment: Test E postemergence; type: in vivo, Amaranthus rudis; settings: scale 0 to 100
Description: as §1, §2

[9] = tested on: waterhemp_RES2 (ALS & HPPD resistant common waterhemp); experiment: Test E postemergence; type: in vivo, Amaranthus rudis; settings: scale 0 to 100
Description: as §1, §2

johnsongrass = experiment: Test E preemergence; type: in vivo, Sorghum halepense; settings: scale 0 to 100
Description: as §1, §2

arrowleaf sida [10] = experiment: Test E preemergence; type: in vivo, Sida rhombifolia; settings: scale 0 to 100
Description: as §1, §2

CCOc1nc(-c2ccccc2)nn1Cc1ccnc(C(F)(F)F)c1 [Compound 27]
Plant response rating (ragweed; 16 g ai/ha): 50
Plant response rating (ragweed; 31 g ai/ha): 35
Plant response rating (ragweed; 62 g ai/ha): 90
Plant response rating (ragweed; 125 g ai/ha): 80
Plant response rating (pigweed, palmer [1]; 16 g ai/ha): 85
Plant response rating (pigweed, palmer [1]; 31 g ai/ha): 100
Plant response rating (pigweed, palmer [1]; 62 g ai/ha): 100
Plant response rating (pigweed, palmer [1]; 125 g ai/ha): 100
Plant response rating (kochia [2]; 16 g ai/ha): 95
Plant response rating (kochia [2]; 31 g ai/ha): 100
Plant response rating (kochia [2]; 62 g ai/ha): 95
Plant response rating (kochia [2]; 125 g ai/ha): 95
Plant response rating (soybean; 16 g ai/ha): 70
Plant response rating (soybean; 31 g ai/ha): 80
Plant response rating (soybean; 62 g ai/ha): 80
Plant response rating (soybean; 125 g ai/ha): 95
Plant response rating (panicum, fall; 16 g ai/ha): 10
Plant response rating (panicum, fall; 31 g ai/ha): 10
Plant response rating (panicum, fall; 62 g ai/ha): 15
Plant response rating (panicum, fall; 125 g ai/ha): 30
Plant response rating (pigweed, palmer [3]; 16 g ai/ha): 98
Plant response rating (pigweed, palmer [3]; 31 g ai/ha): 98
Plant response rating (pigweed, palmer [3]; 62 g ai/ha): 100
Plant response rating (pigweed, palmer [3]; 125 g ai/ha): 98
Plant response rating (dayflower, VA; 16 g ai/ha): 50
Plant response rating (dayflower, VA; 31 g ai/ha): 60
Plant response rating (dayflower, VA; 62 g ai/ha): 70
Plant response rating (dayflower, VA; 125 g ai/ha): 75
Plant response rating (waterhemp [4]; 16 g ai/ha): 100
Plant response rating (waterhemp [4]; 31 g ai/ha): 100
Plant response rating (waterhemp [4]; 62 g ai/ha): 100
Plant response rating (waterhemp [4]; 125 g ai/ha): 100
Plant response rating (crabgrass, Brazilian; 16 g ai/ha): 20
Plant response rating (crabgrass, Brazilian; 31 g ai/ha): 20
Plant response rating (crabgrass, Brazilian; 62 g ai/ha): 30
Plant response rating (crabgrass, Brazilian; 125 g ai/ha): 40
Plant response rating (kochia [5]; 16 g ai/ha): 65
Plant response rating (kochia [5]; 31 g ai/ha): 90
Plant response rating (kochia [5]; 62 g ai/ha): 100
Plant response rating (kochia [5]; 125 g ai/ha): 100
Plant response rating (field bindweed; 16 g ai/ha): 0
Plant response rating (field bindweed; 31 g ai/ha): 0
Plant response rating (field bindweed; 62 g ai/ha): 60
Plant response rating (field bindweed; 125 g ai/ha): 90
Plant response rating (arrowleaf sida [6]; 16 g ai/ha): 70
Plant response rating (arrowleaf sida [6]; 31 g ai/ha): 80
Plant response rating (arrowleaf sida [6]; 62 g ai/ha): 90
Plant response rating (arrowleaf sida [6]; 125 g ai/ha): 100
Plant response rating (sandbur; 16 g ai/ha): 0
Plant response rating (sandbur; 31 g ai/ha): 20
Plant response rating (sandbur; 62 g ai/ha): 30
Plant response rating (sandbur; 125 g ai/ha): 30
Plant response rating (beggarticks; 16 g ai/ha): 40
Plant response rating (beggarticks; 31 g ai/ha): 50
Plant response rating (beggarticks; 62 g ai/ha): 50
Plant response rating (beggarticks; 125 g ai/ha): 55
Plant response rating (corn; 16 g ai/ha): 0
Plant response rating (corn; 31 g ai/ha): 0
Plant response rating (corn; 62 g ai/ha): 25
Plant response rating (corn; 125 g ai/ha): 50
Plant response rating ([7]; 16 g ai/ha): 95
Plant response rating ([7]; 31 g ai/ha): 95
Plant response rating ([7]; 62 g ai/ha): 95
Plant response rating ([7]; 125 g ai/ha): 98
Plant response rating (waterhemp [8]; 16 g ai/ha): 95
Plant response rating (waterhemp [8]; 31 g ai/ha): 98
Plant response rating (waterhemp [8]; 62 g ai/ha): 95
Plant response rating (waterhemp [8]; 125 g ai/ha): 95
Plant response rating ([9]; 16 g ai/ha): 90
Plant response rating ([9]; 31 g ai/ha): 95
Plant response rating ([9]; 62 g ai/ha): 90
Plant response rating ([9]; 125 g ai/ha): 90
Plant response rating (johnsongrass; 16 g ai/ha): 100
Plant response rating (johnsongrass; 31 g ai/ha): 95
Plant response rating (johnsongrass; 62 g ai/ha): 100
Plant response rating (johnsongrass; 125 g ai/ha): 100
Plant response rating (arrowleaf sida [10]; 16 g ai/ha): 20
Plant response rating (arrowleaf sida [10]; 31 g ai/ha): 20
Plant response rating (arrowleaf sida [10]; 62 g ai/ha): 75
Plant response rating (arrowleaf sida [10]; 125 g ai/ha): 90

Fc1ccc(-c2nc(OCC(F)(F)F)n(Cc3ccnc(C(F)(F)F)c3)n2)cc1 [Compound 30]
Plant response rating (ragweed; 31 g ai/ha): 65
Plant response rating (ragweed; 62 g ai/ha): 50
Plant response rating (ragweed; 125 g ai/ha): 70
Plant response rating (ragweed; 250 g ai/ha): 98
Plant response rating (pigweed, palmer [1]; 31 g ai/ha): 90
Plant response rating (pigweed, palmer [1]; 62 g ai/ha): 100
Plant response rating (pigweed, palmer [1]; 125 g ai/ha): 100
Plant response rating (pigweed, palmer [1]; 250 g ai/ha): 100
Plant response rating (kochia [2]; 31 g ai/ha): 90
Plant response rating (kochia [2]; 62 g ai/ha): 90
Plant response rating (kochia [2]; 125 g ai/ha): 100
Plant response rating (kochia [2]; 250 g ai/ha): 90
Plant response rating (soybean; 31 g ai/ha): 75
Plant response rating (soybean; 62 g ai/ha): 80
Plant response rating (soybean; 125 g ai/ha): 85
Plant response rating (soybean; 250 g ai/ha): 95
Plant response rating (panicum, fall; 31 g ai/ha): 20
Plant response rating (panicum, fall; 62 g ai/ha): 30
Plant response rating (panicum, fall; 125 g ai/ha): 35
Plant response rating (panicum, fall; 250 g ai/ha): 30
Plant response rating (pigweed, palmer [3]; 31 g ai/ha): 95
Plant response rating (pigweed, palmer [3]; 62 g ai/ha): 100
Plant response rating (pigweed, palmer [3]; 125 g ai/ha): 100
Plant response rating (pigweed, palmer [3]; 250 g ai/ha): 100
Plant response rating (dayflower, VA; 31 g ai/ha): 60
Plant response rating (dayflower, VA; 62 g ai/ha): 70
Plant response rating (dayflower, VA; 125 g ai/ha): 80
Plant response rating (dayflower, VA; 250 g ai/ha): 90
Plant response rating (waterhemp [4]; 31 g ai/ha): 100
Plant response rating (waterhemp [4]; 62 g ai/ha): 100
Plant response rating (waterhemp [4]; 125 g ai/ha): 100
Plant response rating (waterhemp [4]; 250 g ai/ha): 100
Plant response rating (crabgrass, Brazilian; 31 g ai/ha): 35
Plant response rating (crabgrass, Brazilian; 62 g ai/ha): 60
Plant response rating (crabgrass, Brazilian; 125 g ai/ha): 70
Plant response rating (crabgrass, Brazilian; 250 g ai/ha): 85
Plant response rating (kochia [5]; 31 g ai/ha): 90
Plant response rating (kochia [5]; 62 g ai/ha): 100
Plant response rating (kochia [5]; 125 g ai/ha): 100
Plant response rating (kochia [5]; 250 g ai/ha): 100
Plant response rating (field bindweed; 31 g ai/ha): 10
Plant response rating (field bindweed; 62 g ai/ha): 25
Plant response rating (field bindweed; 125 g ai/ha): 65
Plant response rating (field bindweed; 250 g ai/ha): 75
Plant response rating (arrowleaf sida [6]; 31 g ai/ha): 100
Plant response rating (arrowleaf sida [6]; 62 g ai/ha): 95
Plant response rating (arrowleaf sida [6]; 125 g ai/ha): 95
Plant response rating (arrowleaf sida [6]; 250 g ai/ha): 98
Plant response rating (sandbur; 31 g ai/ha): 20
Plant response rating (sandbur; 62 g ai/ha): 30
Plant response rating (sandbur; 125 g ai/ha): 30
Plant response rating (sandbur; 250 g ai/ha): 35
Plant response rating (beggarticks; 31 g ai/ha): 50
Plant response rating (beggarticks; 62 g ai/ha): 60
Plant response rating (beggarticks; 125 g ai/ha): 70
Plant response rating (beggarticks; 250 g ai/ha): 75
Plant response rating (corn; 31 g ai/ha): 0
Plant response rating (corn; 62 g ai/ha): 0
Plant response rating (corn; 125 g ai/ha): 0
Plant response rating (corn; 250 g ai/ha): 50
Plant response rating ([7]; 31 g ai/ha): 95
Plant response rating ([7]; 62 g ai/ha): 98
Plant response rating ([7]; 125 g ai/ha): 100
Plant response rating ([7]; 250 g ai/ha): 95
Plant response rating (waterhemp [8]; 31 g ai/ha): 95
Plant response rating (waterhemp [8]; 62 g ai/ha): 95
Plant response rating (waterhemp [8]; 125 g ai/ha): 95
Plant response rating (waterhemp [8]; 250 g ai/ha): 95
Plant response rating ([9]; 31 g ai/ha): 95
Plant response rating ([9]; 62 g ai/ha): 95
Plant response rating ([9]; 125 g ai/ha): 95
Plant response rating ([9]; 250 g ai/ha): 95
Plant response rating (johnsongrass; 31 g ai/ha): 65
Plant response rating (johnsongrass; 62 g ai/ha): 65
Plant response rating (johnsongrass; 125 g ai/ha): 98
Plant response rating (johnsongrass; 250 g ai/ha): 100
Plant response rating (arrowleaf sida [10]; 31 g ai/ha): 40
Plant response rating (arrowleaf sida [10]; 62 g ai/ha): 65
Plant response rating (arrowleaf sida [10]; 125 g ai/ha): 85
Plant response rating (arrowleaf sida [10]; 250 g ai/ha): 95
